Laboratory results taken from patent US7884067B2, “Peptides derived from cadherin and methods of use thereof” (Mount Sinai School of Medicine of New York University, priority 2001, dated 2011).

B1: N-Cad/CTF2: chicken cytoplasmic domain of N-cadherin (N-Cad/CTF2) inserted into vector pECE, expressed in L cells (protein)
chain: KRRDKERQAKQLLIDPEDDVRDNILKYDEEGGGEEDQDYDLSQLQQPDTVEPDAIKPVGIRRLDERPIHAEPQYPVRSAAPHPGDIGDFINEGLKAADNDPTAPPYDSLLVFDYEGSGSTAGSLSSLNSSSSGGEQDYDYLNDWGPRFKKLADMYGGGDD

Legend:
E-cadherin = E-cadherin cleavage in staurosporine-treated (apoptotic) A431 cells (Western blot); assay type: cell-based, human
Method: Cell Cultures and transfections. Cells were grown in Dulbecco's Modified Eagle Medium (DMEM) plus 10% fetal bovine serum, penicillin and streptomycin in 5% CO2 at 37° C. […] A431 cells were from American Type Culture Collection. […] A431D cells stably transfected with wild-type or GGG759-761AAA mutant E-cadherin were provided by Dr. A. B. Reynolds.
Immunoprecipitations (IPs), immunoblotting, immunofluorescence and confocal microscopy. For WB analysis of cell extracts, cells were washed with PBS and then solubilized in RIPA buffer. For IPs cells were solubilized in Hepes buffer (25 mM Hepes [pH 7.4], 150 mM NaCl, 1× Complete protease inhibitor cocktail, Roche) containing 1% digitonin (IPs with I-R222 and PI-R222 antibodies) or 1% Triton X-100 (IPs with β-catenin and desmoglein antibodies). Following centrifugation at 17,000×g for 10 min, supernatants (1 mg protein) were pre-cleared with protein A- or protein G-agarose (Pierce) for 2 hours. Supernatants were then incubated with antibodies overnight at 4° C. and treated for 2 hours with protein A-agarose (polyclonal antibodies) or with protein G-agarose (monoclonal antibodies). IPs were washed with Hepes buffer containing either 1% digitonin or 1% Triton X-100 and analyzed by SDS-PAGE. Immunofluorescence and confocal microscopy was performed as described by Georgakopoulos et al., (1999). Briefly, cells were plated on 22×22 mm collagen-coated glass coverslips, fixed in cold methanol for 10 min at −20° C. Following washing in TBS (25 mM Tris-HCl [pH 7.4], 150 mM NaCl), cells were treated with 10% goat serum in SuperBlock (Pierce) for 1 hour, incubated overnight with primary antibody (1:100), washed in TBS and then were incubated with species specific Alexa Fluor™ secondary antibody conjugates (Molecular Probes). Cells were washed with TBS, mounted with Prolong antifade kit (Molecular Probes), and photographed on a Leica confocal laser scanning microscope.
Conditional media (20 μl) from A431 cells cultured in the absence or presence of […] and treated with SDS as above were probed on Western blots with anti-E-cadherin ectodomain antibody H108.

CBP/CREB complex = biological target: T1, CBP/CREB complex (Mus musculus, UniProt P45481); assay: Electrophoretic mobility shift assay, CREB probe; assay type: biochemical; conditions: nuclear extract from cells transfected with 0.2 μg and 0.5 μg pN-Cad/CTF2, FIG. 11C lanes 6-8
T1 construct: full length mouse CBP inserted into vector pRc/RSV; expressed in transfected cells; host or cells: L cells transfected with mouse CBP (pRc/RSV), without or with 0.2 or 0.5 µg pN-Cad/CTF2; nuclear extract
T1 sequence (P45481 whole entry, one chain of several): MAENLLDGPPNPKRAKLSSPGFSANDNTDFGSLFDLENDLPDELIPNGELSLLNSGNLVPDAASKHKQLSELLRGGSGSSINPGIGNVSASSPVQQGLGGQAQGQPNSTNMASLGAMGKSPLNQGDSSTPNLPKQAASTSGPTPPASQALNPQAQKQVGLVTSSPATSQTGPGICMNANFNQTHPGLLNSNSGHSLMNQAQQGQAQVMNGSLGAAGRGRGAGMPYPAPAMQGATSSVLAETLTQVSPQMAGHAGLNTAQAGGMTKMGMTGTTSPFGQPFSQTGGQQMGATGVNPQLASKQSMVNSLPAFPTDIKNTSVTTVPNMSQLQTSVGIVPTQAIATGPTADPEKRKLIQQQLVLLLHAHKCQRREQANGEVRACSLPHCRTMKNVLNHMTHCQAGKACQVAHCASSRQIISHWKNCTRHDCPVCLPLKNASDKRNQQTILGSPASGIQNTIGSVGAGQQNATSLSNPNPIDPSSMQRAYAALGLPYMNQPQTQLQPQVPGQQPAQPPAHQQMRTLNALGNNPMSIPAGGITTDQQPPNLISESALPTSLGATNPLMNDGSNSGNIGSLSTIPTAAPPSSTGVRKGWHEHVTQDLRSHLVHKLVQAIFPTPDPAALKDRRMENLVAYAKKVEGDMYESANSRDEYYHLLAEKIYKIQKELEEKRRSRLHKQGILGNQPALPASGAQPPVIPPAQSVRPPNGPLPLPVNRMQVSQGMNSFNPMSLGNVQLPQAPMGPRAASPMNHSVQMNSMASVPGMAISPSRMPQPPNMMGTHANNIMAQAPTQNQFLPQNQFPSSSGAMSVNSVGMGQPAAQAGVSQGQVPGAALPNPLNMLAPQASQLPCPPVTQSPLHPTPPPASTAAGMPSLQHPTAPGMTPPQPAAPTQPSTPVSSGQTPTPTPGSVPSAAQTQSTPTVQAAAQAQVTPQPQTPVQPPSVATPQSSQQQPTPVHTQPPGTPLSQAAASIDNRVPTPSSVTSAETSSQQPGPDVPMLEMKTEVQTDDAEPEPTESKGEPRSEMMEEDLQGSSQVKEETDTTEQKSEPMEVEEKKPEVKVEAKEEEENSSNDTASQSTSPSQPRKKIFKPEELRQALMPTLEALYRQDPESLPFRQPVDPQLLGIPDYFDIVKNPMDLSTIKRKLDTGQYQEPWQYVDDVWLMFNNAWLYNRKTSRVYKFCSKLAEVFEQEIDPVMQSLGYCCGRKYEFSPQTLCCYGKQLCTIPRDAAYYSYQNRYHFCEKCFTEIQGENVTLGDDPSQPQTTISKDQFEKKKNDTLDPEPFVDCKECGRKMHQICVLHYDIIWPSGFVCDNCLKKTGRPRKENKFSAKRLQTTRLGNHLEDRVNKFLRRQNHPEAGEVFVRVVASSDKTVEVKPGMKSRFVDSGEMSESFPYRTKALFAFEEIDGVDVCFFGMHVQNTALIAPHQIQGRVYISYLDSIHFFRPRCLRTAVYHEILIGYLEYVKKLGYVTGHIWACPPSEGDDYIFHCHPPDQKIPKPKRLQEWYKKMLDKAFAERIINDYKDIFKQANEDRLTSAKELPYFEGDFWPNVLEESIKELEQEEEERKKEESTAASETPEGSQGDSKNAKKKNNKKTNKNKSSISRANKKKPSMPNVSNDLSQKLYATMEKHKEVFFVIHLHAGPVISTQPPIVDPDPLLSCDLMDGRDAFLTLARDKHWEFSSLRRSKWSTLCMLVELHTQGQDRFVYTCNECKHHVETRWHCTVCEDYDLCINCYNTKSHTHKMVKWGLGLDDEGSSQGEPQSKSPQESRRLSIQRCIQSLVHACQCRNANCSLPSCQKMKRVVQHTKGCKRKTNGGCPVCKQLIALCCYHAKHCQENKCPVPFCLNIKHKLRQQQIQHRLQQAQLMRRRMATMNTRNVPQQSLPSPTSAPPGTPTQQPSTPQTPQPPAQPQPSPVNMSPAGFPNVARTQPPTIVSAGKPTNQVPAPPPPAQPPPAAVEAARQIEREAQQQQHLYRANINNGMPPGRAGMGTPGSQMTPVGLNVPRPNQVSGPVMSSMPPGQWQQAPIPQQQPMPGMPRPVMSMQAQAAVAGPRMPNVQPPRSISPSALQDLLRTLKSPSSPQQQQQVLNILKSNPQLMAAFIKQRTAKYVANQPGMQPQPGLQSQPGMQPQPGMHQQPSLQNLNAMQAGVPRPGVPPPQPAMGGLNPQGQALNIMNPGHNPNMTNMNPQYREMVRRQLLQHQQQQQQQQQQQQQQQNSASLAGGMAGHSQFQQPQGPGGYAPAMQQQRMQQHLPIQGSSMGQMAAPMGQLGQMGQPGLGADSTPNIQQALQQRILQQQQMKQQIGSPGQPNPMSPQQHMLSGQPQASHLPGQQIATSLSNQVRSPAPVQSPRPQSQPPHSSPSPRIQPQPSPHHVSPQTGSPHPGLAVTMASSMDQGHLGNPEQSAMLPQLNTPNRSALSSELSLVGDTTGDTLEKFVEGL
Method: Electrophoresis mobility shift assay (EMSA). Nuclear extract from CBP-transfected L cells were prepared using the extraction kit N-XTRACT (Sigma) according to manufacturer's instructions. Ten microgram of nuclear extract was used for EMSA performed according to manufacturer's instructions using biotinylated double-stranded oligonucleotide probes containing DNA-binding motifs for CREB or MEF-1 (Panomics). Probes are as follow: CREB, 5′-[…]-3′ (SEQ ID NO: 17); MEF-1,5′-[…]-3′ (SEQ ID NO: 18). Reaction products were separated on 6% polyacrylamide gels in cold TBE buffer (50 mM Tris-HCl, 45 mM Boric acid, 0.5 mM EDTA), transferred to nylon membranes (Immobilon-Ny+, Millipore) and bound probes were immobilized for 30 minutes at 85° C. and visualized by chemiluminescence using streptavidin-HRP conjugate. For antibody supershift analysis, nuclear extract was incubated for 3 hours at 4° C. with […] of 1 B6 antibody prior to probe addition. Where indicated, nuclear extract ([…]) was immunoprecipitated with A-22 antibody ([…]) and protein A-agarose in EBC buffer (50 mM Tris, pH 8, 120 mM NaCl, 0.5% NP40, 1× Complete protease inhibitor cocktail).

Molecule	production of the 33 kDa cadherin fragment (E-Cad/CTF2) (E-cadherin; 30 minutes preincubation with L-685,458 (0.5 μM), then STS 6 hours)	E-Cad/CTF1 level on inhibition of E-Cad/CTF2 (E-cadherin; L-685,458 (0.5 μM), STS 6 hours)	formation of a CBP/CREB complex on CRE-containing DNA templates (CBP/CREB complex)
CC(C)C[C@H](NC(=O)[C@H](Cc1ccccc1)C[C@@H](O)[C@H](Cc1ccccc1)NC(=O)OC(C)(C)C)C(=O)N[C@@H](Cc1ccccc1)C(N)=O [L-685,458]	completely blocked	increase in E-Cad/CTF1	
B1			defective in their ability to promote formation of a CBP/CREB complex
